# Source: patent US8063096B2, “Spirocyclic 3-phenyl-3substituted-4-ketolactams and-lactones” (Bayer Cropscience AG, priority 2001, dated 2011)
# Read-outs that look alike come from different tables or passages of the source.
# What was measured:
# Phaedon cochleariae = assay: Phaedon larvae test; assay type: in vivo; settings: 500 ppm active compound, cabbage leaves dipped
# Procedure: (§1) [table] To produce a suitable preparation of active compound, 1 part by weight of active compound is mixed with the stated amounts of solvent and emulsifier, and the concentrate is diluted with emulsifier-containing water to the desired concentration. Cabbage leaves (Brassica oleracea) are treated by being dipped into the preparation of active compound of the desired concentration and are populated with larvae of the mustard beetle (Phaedon cochleariae) while leaves are still moist. After the desired period of time, the kill in % is determined. 100% means that all beetle larvae have been killed; 0% means that none of the beetle larvae have been killed.
# Tetranychus urticae = assay: Tetranychus test (OP-resistant/dip treatment); assay type: in vivo; settings: 100 ppm active compound, bean plants dipped, OP-resistant
# Procedure: [table] To produce a suitable preparation of active compound, 1 part by weight of active compound is mixed with the stated amounts of solvent and emulsifier, and the concentrate is diluted with emulsifier-containing water to the desired concentration. Bean plants (Phaseolus vulgaris) which are heavily infested by all stages of the greenhouse […] spider mite (Tetranychus urticae) are dipped into a preparation of active compound of the desired concentration. After the desired period of time, the activity in % is determined. 100% means that all spider mites have been killed; 0% means that none of the spider mites have been killed.
# Meloidogyne incognita = assay: Meloidogyne test (gall formation on lettuce roots); assay type: in vivo; settings: 20 ppm active compound, nematicidal action by gall formation
# Procedure: [table] To produce a suitable preparation of active compound, 1 part by weight of active compound is mixed with the stated amounts of solvent and emulsifier, and the concentrate is diluted with water to the desired concentration. Vessels are filled with sand, solution of active compound, Meloidogyne incognita egg/larvae suspension and lettuce seeds. The lettuce seeds germinate and the plants develop. On the roots, galls develop. After the desired period of time, the nematicidal action is determined in % by the formation of galls. 100% means that no galls have been found; 0% means that the number of galls on the treated plants corresponds to that of the untreated control.
# Myzus persicae [1] = assay: Myzus test (leaf dip, cabbage); assay type: in vivo; settings: 500 ppm active compound, cabbage leaves dipped
# Procedure: as §1, with “oleracea) which are heavily infested by peach aphids (Myzus persicae)” for “oleracea)”, “concentration.” for “concentration and are populated with larvae of the mustard beetle (Phaedon cochleariae) while leaves are still moist.”, “aphids” for “beetle larvae”
# Alopecurus [2] = assay: Pre-emergence test, Alopecurus; assay type: in vivo; settings: pre-emergence/greenhouse; 250 g of ai/ha; after three weeks
# Procedure: (§2) [table] To produce a suitable preparation of active compound, 1 part by weight of active compound is mixed with the stated amount of solvent, the stated amount of emulsifier is added and the concentrate is diluted with water to the desired concentration. Seeds of the test plants are sown in normal soil. After about 24 hours, the soil is sprayed with the preparation of active compound such that the particular amounts of active compound desired are applied per unit area. The concentration of the spray liquor is chosen such that the particular amounts of active compound desired are applied in 1000 l of water/ha. After three weeks, the degree of damage to the plants is rated in % damage in comparison to the development of the untreated control. The figures denote: • 0%=no effect (like untreated control) • 100%=total destruction
# Avena fatua [3] = assay: Pre-emergence test, Avena fatua; assay type: in vivo; settings: pre-emergence/greenhouse; 250 g of ai/ha; after three weeks
# Procedure: as §2
# Echinochloa [4] = assay: Pre-emergence test, Echinochloa; assay type: in vivo; settings: pre-emergence/greenhouse; 250 g of ai/ha; after three weeks
# Procedure: as §2
# Setaria [5] = assay: Pre-emergence test, Setaria; assay type: in vivo; settings: pre-emergence/greenhouse; 250 g of ai/ha; after three weeks
# Procedure: as §2
# Sugar beet = assay: Pre-emergence test, Sugar beet; assay type: in vivo; settings: pre-emergence/greenhouse; 250 g of ai/ha; after three weeks; crop
# Procedure: as §2
# Alopecurus [6] = assay: Post-emergence test, Alopecurus; assay type: in vivo; settings: post-emergence/greenhouse; 250 g of ai/ha; after three weeks
# Procedure: as §2, with “Test plants” for “Seeds”, “a height of 5-15 cm” for “the test plants”, “are” for “are sown in normal soil. After about 24 hours, the soil is”, “(=like” for “(like”
# Avena fatua [7] = assay: Post-emergence test, Avena fatua; assay type: in vivo; settings: post-emergence/greenhouse; 250 g of ai/ha; after three weeks
# Procedure: as §2, with “Test plants” for “Seeds”, “a height of 5-15 cm” for “the test plants”, “are” for “are sown in normal soil. After about 24 hours, the soil is”, “(=like” for “(like”
# Echinochloa [8] = assay: Post-emergence test, Echinochloa; assay type: in vivo; settings: post-emergence/greenhouse; 250 g of ai/ha; after three weeks
# Procedure: as §2, with “Test plants” for “Seeds”, “a height of 5-15 cm” for “the test plants”, “are” for “are sown in normal soil. After about 24 hours, the soil is”, “(=like” for “(like”
# Setaria [9] = assay: Post-emergence test, Setaria; assay type: in vivo; settings: post-emergence/greenhouse; 250 g of ai/ha; after three weeks
# Procedure: as §2, with “Test plants” for “Seeds”, “a height of 5-15 cm” for “the test plants”, “are” for “are sown in normal soil. After about 24 hours, the soil is”, “(=like” for “(like”
# Sinapis = assay: Post-emergence test, Sinapis; assay type: in vivo; settings: post-emergence/greenhouse; 250 g of ai/ha; after three weeks
# Procedure: as §2, with “Test plants” for “Seeds”, “a height of 5-15 cm” for “the test plants”, “are” for “are sown in normal soil. After about 24 hours, the soil is”, “(=like” for “(like”
# Aphis gossypii [10] = assay: Aphis gossypii test (leaf dip, cotton); assay type: in vivo; settings: 500 ppm active compound, cotton leaves dipped
# Procedure: as §1, with “Cotton” for “Cabbage”, “(Gossypium hirsutum) which are heavily infested by the cotton aphids (Aphis gossypii)” for “(Brassica oleracea)”, “concentration.” for “concentration and are populated with larvae of the mustard beetle (Phaedon cochleariae) while leaves are still moist.”, “aphids” for “beetle larvae”
# Aphis gossypii [11] = assay: Test for persistency: Aphis gossypii (root-systemic action); assay type: in vivo; settings: 4 ppm in soil, cotton
# Procedure: (§3) [table] To produce a suitable preparation of active compound, 1 part by weight of active compound is mixed with the stated amounts of solvent and emulsifier, and the concentrate is diluted with water to the desired concentration. The preparation of active compound is mixed intimately with the soil. The stated concentration refers to the amount of active compound per volume unit of soil (mg/l). The treated soil is filled into pots, and into these pots is planted cotton at the cotyledon stage. In this way, the active compound can be taken up from the soil into the roots of the plants and be transported into the leaves. After the stated number of days, cotton aphids (Aphis gossypii) are, in infection chambers, placed on the leaves. After the desired period of time, the kill in % is determined. 100% means that all aphids have been killed; 0% means that none of the aphids have been killed.
# Myzus persicae [12] = assay: Test for persistency: Myzus persicae (root-systemic action); assay type: in vivo; settings: 4 ppm in soil, broad beans
# Procedure: as §3, with “pre-germinated broad beans.” for “cotton at the cotyledon stage.”, “peach” for “cotton”, “(Myzus persicae)” for “(Aphis gossypii)”
# log P determination = assay type: physicochemical
# [13] = pH 2.3, pH 2.3, read-out: logP (2.3)
smiles,measurement,setting,value
CCOC1CCC2(CC1)NC(=O)C(Cl)(c1cc(C)ccc1Br)C2=O (stereo not drawn) [Ex. I-1-a-41],Kill rate in % after 7d,Phaedon cochleariae,100%
same,Kill rate in % after 7d,Tetranychus urticae,95%
COC1CCC2(CC1)NC(=O)C(Cl)(c1c(Cl)cc(Cl)cc1Cl)C2=O (stereo not drawn) [Ex. I-1-a-42],Kill rate in % after 14d,Meloidogyne incognita,90%
same,Kill rate in % after 6d,Myzus persicae [1],95%
CCc1cc(Cl)cc(Cl)c1C1(Cl)C(=O)NC2(CCC(OC)CC2)C1=O (stereo not drawn) [Ex. I-1-a-46],Kill rate in % after 6d,Myzus persicae [1],98%
same,"% damage, Alopecurus",Alopecurus [2],95%
same,"% damage, Avena fatua",Avena fatua [3],100%
same,"% damage, Echinochloa",Echinochloa [4],100%
same,"% damage, Setaria",Setaria [5],100%
same,"% damage, Sugar beet",Sugar beet,0%
same,"% damage, Alopecurus",Alopecurus [6],100%
same,"% damage, Avena fatua",Avena fatua [7],100%
same,"% damage, Echinochloa",Echinochloa [8],100%
same,"% damage, Setaria",Setaria [9],100%
same,"% damage, Sinapis",Sinapis,70%
Cc1cc(Br)cc(C)c1C1(Cl)C(=O)NC2(CCCOC2)C1=O (stereo not drawn) [Ex. I-1-b-1],Kill rate in % after 7d,Tetranychus urticae,95%
CCc1cc(Cl)c(C2(Cl)C(=O)NC3(CCCOC3)C2=O)c(Br)c1 (stereo not drawn) [Ex. I-1-b-5],Kill rate in % after 7d,Tetranychus urticae,90%
Cc1cc(Br)cc(Cl)c1C1(Cl)C(=O)NC2(CCCOC2)C1=O (stereo not drawn) [Ex. I-1-b-8],Kill rate in % after 7d,Phaedon cochleariae,100%
Cc1cc(Cl)cc(Br)c1C1(Cl)C(=O)NC2(CCCOC2)C1=O (stereo not drawn) [Ex. I-1-b-9],Kill rate in % after 7d,Phaedon cochleariae,100%
Cc1cc(Cl)cc(Cl)c1C1(Cl)C(=O)NC2(CCOC(C)C2)C1=O (stereo not drawn) [Ex. I-1-c-1],Kill rate in % after 6d,Aphis gossypii [10],90%
same,Kill rate in % after 7d,Aphis gossypii [11]; infection after 7 d,99%
same,Kill rate in % after 7d,Aphis gossypii [11]; infection after 21 d,99^ %
same,Kill rate in % after 7d,Aphis gossypii [11]; infection after 35 d,98^ %
same,Kill rate in % after 7d,Myzus persicae [12]; infection after 7 d,100%
same,Kill rate in % after 7d,Myzus persicae [12]; infection after 21 d,100%
same,Kill rate in % after 7d,Myzus persicae [12]; infection after 35 d,100%
Cc1cc(Cl)ccc1C1(Cl)C(=O)NC2(CCOCC2)C1=O (stereo not drawn) [Ex. I-1-c-4],Kill rate in % after 6d,Myzus persicae [1],95%
COC1CCC2(CC1)OC(=O)C(Cl)(c1cc(C)c(C)cc1C)C2=O (stereo not drawn) [Ex. I-2-a-1],Kill rate in % after 7d,Myzus persicae [12]; infection after 7 d,100%
same,Kill rate in % after 7d,Myzus persicae [12]; infection after 21 d,95%
same,Kill rate in % after 7d,Myzus persicae [12]; infection after 35 d,0%
same,logP,"log P determination; pH 2.3, pH 2.3, read-out: log P (pH 2.3)",4.07
same,logP,log P determination; [13],4.07
COC1CCC2(CC1)OC(=O)C(c1cc(C)c(C)cc1C)([N+](=O)[O-])C2=O (stereo not drawn) [I-2-a-2],log P,"log P determination; isomer mixture, two values",4.42
same,logP (2.3),log P determination; pH 2.3,4.42
same,logP,"log P determination; pH 2.3, isomer mixture, two values, read-out: log P",4.17
same,logP,log P determination; [13],4.17
